{"source": "the supplement of paper PMC10307832", "assay_in_all_cases": "relative viability (nuclei count vs DMSO), 5 days (fraction); higher = more cells survive", "key": {"[1]": {"compound": "CS(=O)(=O)N1CCN(Cc2cc3nc(-c4cccc5[nH]ncc45)nc(N4CCOCC4)c3s2)CC1 [Pictilisib] + N=C(N)NC(=N)NCCc1ccccc1 [Phenformin] (partner 250 µM)", "procedure,_shortened": "(§1)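 One day after seeding in 1536-well plates, lung cancer cell lines were dosed by pin tool. Dosing was either single-drug or a fixed anchor-drug dose plus five library-drug doses (not always all listed) in √10 steps. After 5 days, nuclei were stained in one fix-and-stain step and counted on 4× images, and relative viability is the nuclei count of treated wells over that of vehicle wells, given as the median of duplicate plates.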"}, "[2]": {"compound": "NC1(c2ccc(-c3nc4ccn5c(=O)[nH]nc5c4cc3-c3ccccc3)cc2)CCC1 [MK-2206] + CC(C)C[C@H](NC(=O)[C@H](Cc1ccccc1)NC(=O)c1cnccn1)B(O)O [Bortezomib] (partner 0.002 µM)", "procedure,_shortened": "as §1"}, "[3]": {"compound": "NC1(c2ccc(-c3nc4ccn5c(=O)[nH]nc5c4cc3-c3ccccc3)cc2)CCC1 [MK-2206] + CCNC(=O)c1noc(-c2cc(C(C)C)c(O)cc2O)c1-c1ccc(CN2CCOCC2)cc1 [Luminespib] (partner 0.01 µM)", "procedure,_shortened": "as §1"}, "[4]": {"compound": "NC1(c2ccc(-c3nc4ccn5c(=O)[nH]nc5c4cc3-c3ccccc3)cc2)CCC1 [MK-2206] + COc1cc2c(Oc3ccc(NC(=O)C4(C(=O)Nc5ccc(F)cc5)CC4)cc3F)ccnc2cc1OCCCN1CCOCC1 [Foretinib] (partner 0.25 µM)", "procedure,_shortened": "as §1"}, "[5]": {"compound": "NC1(c2ccc(-c3nc4ccn5c(=O)[nH]nc5c4cc3-c3ccccc3)cc2)CCC1 [MK-2206] + C[C@]1(O)C[C@@H](c2nc(-c3ccc4ccc(-c5ccccc5)nc4c3)c3c(N)nccn32)C1 [Linsitinib] (partner 1 µM)", "procedure,_shortened": "as §1"}}}
{"cell line": "UMC-11", "values": [{"measurement": "relative viability", "setting": "[1]; first compound 0.02 µM", "result": 0.331}, {"measurement": "relative viability", "setting": "[1]; first compound 0.06325 µM", "result": 0.346}, {"measurement": "relative viability", "setting": "[1]; first compound 0.6325 µM", "result": 0.312}, {"measurement": "relative viability", "setting": "[1]; first compound 2 µM", "result": 0.315}, {"measurement": "relative viability", "setting": "[2]; first compound 0.01 µM", "result": 0.668}, {"measurement": "relative viability", "setting": "[2]; first compound 0.03162 µM", "result": 0.793}, {"measurement": "relative viability", "setting": "[2]; first compound 0.3162 µM", "result": 0.852}, {"measurement": "relative viability", "setting": "[2]; first compound 1 µM", "result": 0.389}, {"measurement": "relative viability", "setting": "[3]; first compound 0.01 µM", "result": 1}, {"measurement": "relative viability", "setting": "[3]; first compound 0.03162 µM", "result": 0.944}, {"measurement": "relative viability", "setting": "[3]; first compound 0.3162 µM", "result": 1.12}, {"measurement": "relative viability", "setting": "[3]; first compound 1 µM", "result": 1.1}, {"measurement": "relative viability", "setting": "[4]; first compound 0.01 µM", "result": 1.08}, {"measurement": "relative viability", "setting": "[4]; first compound 0.03162 µM", "result": 1.1}, {"measurement": "relative viability", "setting": "[4]; first compound 0.3162 µM", "result": 1.16}, {"measurement": "relative viability", "setting": "[4]; first compound 1 µM", "result": 1.05}, {"measurement": "relative viability", "setting": "[5]; first compound 0.01 µM", "result": 1.1}, {"measurement": "relative viability", "setting": "[5]; first compound 0.03162 µM", "result": 1.02}, {"measurement": "relative viability", "setting": "[5]; first compound 0.3162 µM", "result": 1.01}, {"measurement": "relative viability", "setting": "[5]; first compound 1 µM", "result": 1.01}]}
